Source: US10544440B2, “Multiple protease deficient filamentous fungal cells and methods of use thereof” (Glykos Finland OY, priority 2013, dated 2020)
Square brackets hold non-standard residues; d marks the D form. Peptide text beside a SMILES is read from it. * marks the point of attachment. Sta = CC(C)C[C@H](N)[C@@H](O)CC(=O)O; Isovaleryl = CC(C)CC(=O)*

How the values were obtained:
M1200 strain = experiment: Inhibitor studies on FGF21 production strain M1200 in 24 well culture; format: cell-based, Trichoderma reesei; details: M1200 24 well culture, inhibitors 10 μM, SBTI 0.1 mg/ml; for FGF21 expression, lower band / FGF21 expression, total product / FGF21 expression, upper band: day 4 immunoblot
Source text: Chymostatin and SBTI are known to inhibit SLP2 and SLP7 subtilisin proteases that are still expressed in the M1200 strain. Pepstatin inhibits aspartic proteases such as PEP8, PEP11, PEP12 which are known to be secreted into the supernatant. 1,10-phenathroline targets mainly zinc metalloproteases which are secreted by Trichoderma. The M1200 strain was cultivated in 24 well format in TrMM with 10 g/L yeast extract, 20 g/L cellobiose, 10 g/L sorbose, PIPPS buffered at pH 4.5. Chymostatin, phenathroline, and pepstatin were used at a final concentration of 10 μM and SBTI was used at 0.1 mg/ml. Each treatment was done in duplicate wells and the untreated control was cultured in 4 wells.
The cultures were started by adding 1×10^7 spores into 50 ml of culture medium and adding 3 ml of culture medium plus spores to each well (6×10^5 spores/well). 100 μl of each culture supernatant was collected on days 4, 5, and 6. The mycelium was spun down to remove only the supernatant. Orange LSB was added and the samples were heated for 5 minutes. 2 μl of the supernatant+LSB was loaded per well into 4-20% Criterion TGX gel. The gel was run and proteins were transferred to nitrocellulose membranes.
The expressed FGF21 was detected by immunoblotting as above. A commercially purchased N-terminal antibody rabbit polyclonal from Abcam (#ab66564) and C-terminal rabbit polyclonal antibody from Abcam (#ab137715) were used in some cases.

M393 strain = experiment: FGF21 production by M393 in 24 well cultures treated with protease inhibitors; format: cell-based, Trichoderma reesei; details: M393 24 well culture, 10 μM pepstatin A added, day 6
Method: The M393 strain was grown with and without protease inhibitors pepstatin A, chymostatin, or soybean trypsin inhibitor. Independent wells were chosen for control wells where no inhibitors were added. This strain was grown in 3 ml of TrMM with diammonium citrate without ammonium sulfate, 100 mM PIPPS, 20 g/L spent grain extract, 40 g/L lactose adjusted to pH 4.5. The 24 well plates were shaken at 800 rpm at 85% humidity. The plate was covered with an air permeable membrane and the cultures were grown for 6 days.
Inhibitors were added first on day 3 and then added daily until day 6. 200 μl samples were taken from the culture wells beginning on day 3. The mycelium was spun down for 5 minutes at 13 k and the supernatant collected. From the culture supernatant 5 μl plus LSB was loaded in a 4-20% SDS PAGE gel and immunoblotting made on nitrocellulose with rabbit anti-FGF21 (2 μg/ml) and goat anti-rabbit IgG AP conjugated secondary antibody diluted 1:10,000. FGF21 standard were included on the blot for quantification.

| Molecule | FGF21 expression, lower band (M1200 strain) [Fluorescent units] | FGF21 expression, total product (M1200 strain) [Fluorescent units] | FGF21 expression, upper band (M1200 strain) [Fluorescent units] | effect of inhibitor treatment on FGF21 forms (immunoblot) (M1200 strain) | FGF21 production (M393 strain) |
| --- | --- | --- | --- | --- | --- |
| c1cnc2c(c1)ccc1cccnc12 [1,10-phenathroline] | 68800 | 69574 | 774 | only improved the expression level of the 10 kD form | – |
| CC(C)C[C@H](NC(=O)[C@@H](NC(=O)N[C@@H](Cc1ccccc1)C(=O)O)[C@@H]1CCN=C(N)N1)C(=O)N[C@H](C=O)Cc1ccccc1 [chymostatin] | 19500 | 53700 | 34200 | improved the stability of the protein allowing a 17 kD major product | – |
| CC(C)CC(=O)N[C@H](C(=O)N[C@H](C(=O)N[C@@H](CC(C)C)[C@@H](O)CC(=O)N[C@@H](C)C(=O)N[C@@H](CC(C)C)[C@@H](O)CC(=O)O)C(C)C)C(C)C [pepstatin, pepstatin A] (Isovaleryl-VV[Sta]A[Sta]-OH) | 51050 | 52660 | 1610 | only improved the expression level of the 10 kD form | up to 160 mg/L |
| SBTI: soybean trypsin inhibitor, protease inhibitor (protein, UniProt P01070 25-205, looked up) Trypsin inhibitor A: DFVLDNEGNPLENGGTYYILSDITAFGGIRAAPTGNERCPLTVVQSRNELDKGIGTIISSPYRIRFIAEGHPLSLKFDSFAVIMLCVGIPTEWSVVEDLPEGPAVKIGENKDAMDGWFRLERVSDDEFNNYKLVFCPQQAEDDKCGDIGISIDHDDGTRRLVVSKNKPLVVQFQKLDKESL | 37050 | 50850 | 13800 | only improved the expression level of the 10 kD form | – |
